The subject of this test is glioblastoma brain cancer cell line LN-229. The test can be described thus: Cytotoxicity assay (CCK8 viability). It is filed as cell-based. The conditions noted are these: Homo sapiens, cytotoxicity against LN-229 cells, 18 hours incubation. How it is done:
Cytoxocity assay: Cells were seeded on a 96 well polystyrene plate in full serum media at a density of 75,000 cells per milliliter, 100 μL per well. Plates were incubated at 37° C. and 5% CO2 for 24 hours to allow cell attachment. Drug solutions were prepared in DMSO at 100× concentration and mixed 1:100 in 1% FBS media to yield the desired concentration. Drug-media mixtures were vortexed immediately prior to administration to cells. Full serum media was removed and replaced with drug-media mixtures and incubated for 18 hours. 10 μL of Cell Counting Kit 8 (CCK8, Dojindo# CK04-11) was added to each well to colormetrically assess viability. After 2-4 hours of incubation with the CCK8 dye, absorbance was read at 450 nm by a BioTek Synergy 2 plate reader.
The cytotoxicity of selected compounds against the glioblastoma brain cancer cell line LN-229 is depicted in Table 1.

pEC50: −log10 of the molar value.

The term pEC50 denotes the EC50 on a negative log10 scale, so that one unit is a factor of ten.

In the case of `C[C@@H]1CC[C@H]2[C@@H](C1)c1c(O)nc(C(C)(C)c3cccs3)nc1OC2(C)C` [Compound 6e, (6aS,9R,10aR)-6,6,9-Trimethyl-3-(2-(thiophen-2-yl)propan-2-yl)-6a,7,8,9,10,10a-hexahydro-6H-isochromeno[3,4-d]pyrimidin-1-ol], the pEC50 is 4.52.
In the case of `CCCCCCC(C)(C)c1nc(O)c2c(n1)OC(C)(C)[C@H]1CC[C@@H](C)C[C@@H]21` [Compound 6b, (6aS,9R,10aR)-6,6,9-Trimethyl-3-(2-methyloctan-2-yl)-6a,7,8,9,10,10a-hexahydro-6H-isochromeno[3,4-d]pyrimidin-1-ol], the pEC50 was 4.56.
As for `C[C@@H]1CC[C@H]2[C@@H](C1)c1c(O)nc(C(C)(C)C3CCCCC3)nc1OC2(C)C` [Compound 6d, (6aS,9R,10aR)-3-(2-Cyclohexylpropan-2-yl)-6,6,9-trimethyl-6a,7,8,9,10,10a-hexahydro-6H-isochromeno[3,4-d]pyrimidin-1-ol], the figure is 4.97.

For the origin of these results see US8324228B2, “Pyrimidine classical cannabinoid compounds and related methods of use” (priority 2008, dated 2012).
